Experimental data reported in PubChem BioAssay (NCI).
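Dose response: 5 concentrations. Exposure: 48 h. Format: 96-well plates. Endpoint: linear interpolation; highest concentration if not reached. TGI: concentration producing complete growth inhibition.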

What was measured:
Assay in all cases: inhibition of tumour cell growth, NCI panel, 48 h
HCT-15 colon = system: HCT-15 colon
SK-MEL-2 melanoma = system: SK-MEL-2 melanoma
MDA-MB-435 = system: MDA-MB-435
NCI-H23 lung = system: NCI-H23 lung
786-0 renal = system: 786-0 renal
PC-3 prostate = system: PC-3 prostate
OVCAR-5 ovarian = system: OVCAR-5 ovarian
HCT-116 colon = system: HCT-116 colon
BT-549 breast = system: BT-549 breast
SF-295 CNS = system: SF-295 CNS
ACHN renal = system: ACHN renal
UACC-257 melanoma = system: UACC-257 melanoma
SK-OV-3 ovarian = system: SK-OV-3 ovarian
IGROV1 ovarian = system: IGROV1 ovarian
SNB-75 CNS = system: SNB-75 CNS
T-47D breast = system: T-47D breast
SN12C renal = system: SN12C renal
OVCAR-3 ovarian = system: OVCAR-3 ovarian
UACC-62 melanoma = system: UACC-62 melanoma
KM12 colon = system: KM12 colon
HOP-62 NSCLC = system: HOP-62 NSCLC
SK-MEL-5 melanoma = system: SK-MEL-5 melanoma
SF-268 CNS = system: SF-268 CNS
MDA-N = system: MDA-N
HCC-2998 colon = system: HCC-2998 colon
U251 CNS = system: U251 CNS
M14 melanoma = system: M14 melanoma
CCRF-CEM leukemia = system: CCRF-CEM leukemia
HS 578T breast = system: HS 578T breast
UO-31 renal = system: UO-31 renal
RPMI-8226 leukemia = system: RPMI-8226 leukemia
SR leukemia = system: SR leukemia
MOLT-4 leukemia = system: MOLT-4 leukemia
SF-539 CNS = system: SF-539 CNS
A498 renal = system: A498 renal
NCI/ADR-RES ovarian = system: NCI/ADR-RES ovarian
NCI-H522 lung = system: NCI-H522 lung
NCI-H460 lung = system: NCI-H460 lung
OVCAR-8 ovarian = system: OVCAR-8 ovarian
SNB-19 CNS = system: SNB-19 CNS
MCF7 breast = system: MCF7 breast
NCI-H226 lung = system: NCI-H226 lung
OVCAR-4 ovarian = system: OVCAR-4 ovarian
MDA-MB-231 breast = system: MDA-MB-231 breast
HOP-92 NSCLC = system: HOP-92 NSCLC
SK-MEL-28 melanoma = system: SK-MEL-28 melanoma
CAKI-1 renal = system: CAKI-1 renal
EKVX NSCLC = system: EKVX NSCLC
RXF 393 renal = system: RXF 393 renal
HT29 colon = system: HT29 colon
LOX IMVI melanoma = system: LOX IMVI melanoma
COLO 205 colon = system: COLO 205 colon
TK-10 renal = system: TK-10 renal
K-562 leukemia = system: K-562 leukemia
A549 NSCLC = system: A549 NSCLC
SW-620 colon = system: SW-620 colon
MALME-3M melanoma = system: MALME-3M melanoma
DU-145 prostate = system: DU-145 prostate
HL-60(TB) leukemia = system: HL-60(TB) leukemia

Measured: TGI

O=c1[nH]c(=O)n(C2COC(CO)C2O)cc1F (centres undefined)
60.8 µM: RXF 393 renal
not listed: HL-60(TB) leukemia
> 100 µM: all other assays above

CCOC(=O)c1ccc(-c2cc(C)no2)[nH]1
71.5 µM: CAKI-1 renal
29.3 µM: MDA-MB-435
not listed: HOP-62 NSCLC | HCC-2998 colon | HS 578T breast | SR leukemia | MCF7 breast
> 100 µM: all other assays above

COc1ccc(C2=CC(C(C)=C(C(N)=O)C(N)=O)C=C(c3ccc(Br)cc3)C2)c(OC)c1 (centres undefined)
not listed: SF-539 CNS | MALME-3M melanoma
> 100 µM: all other assays above

O=C1OC(c2ccccc2)=N/C1=C\c1ccc([N+](=O)[O-])cc1
58.1 µM: MOLT-4 leukemia
18.9 µM: NCI-H226 lung
40.5 µM: ACHN renal
67 µM: BT-549 breast
96 µM: UACC-62 melanoma
76.2 µM: HOP-92 NSCLC
55.1 µM: NCI/ADR-RES ovarian
68.3 µM: CCRF-CEM leukemia
86 µM: SK-MEL-2 melanoma
93.9 µM: T-47D breast
79.6 µM: SR leukemia
not listed: MALME-3M melanoma
> 100 µM: all other assays above

CCCCCCc1cc2cc(-c3cn4ccsc4n3)c(=O)oc2cc1O
> 44.9 µM: SK-MEL-5 melanoma
> 95.9 µM: CAKI-1 renal
> 35.9 µM: SK-MEL-28 melanoma
> 71.8 µM: OVCAR-8 ovarian
> 94.8 µM: RXF 393 renal
> 77 µM: HS 578T breast
> 27.5 µM: MDA-MB-435
> 92.7 µM: SNB-75 CNS
> 50.8 µM: UACC-62 melanoma
> 89.7 µM: SF-268 CNS
> 22.8 µM: MDA-N
not listed: M14 melanoma | MALME-3M melanoma
> 100 µM: all other assays above

COc1cc(S(=O)(=O)Nc2ccc(-c3csc(N4C(=O)CSC4c4cccc(Oc5ccccc5)c4)n3)cc2)ccc1Cl (centres undefined)
75.8 µM: MDA-N
51.7 µM: MCF7 breast
52.8 µM: RXF 393 renal
48.9 µM: HL-60(TB) leukemia
33.9 µM: T-47D breast
87.7 µM: SK-MEL-28 melanoma
not listed: SK-MEL-2 melanoma | UACC-257 melanoma | HCC-2998 colon | U251 CNS | NCI-H460 lung | MDA-MB-231 breast | TK-10 renal | A549 NSCLC
> 100 µM: all other assays above

Cc1ccc(S(=O)(=O)N2CC2CCCCC=O)cc1 (centres undefined)
55.1 µM: CCRF-CEM leukemia
37.2 µM: SR leukemia
56 µM: LOX IMVI melanoma
not listed: HCC-2998 colon | SF-539 CNS | NCI-H460 lung | MCF7 breast | HL-60(TB) leukemia
> 100 µM: all other assays above
